According to patent US6413958B2, “4-hydroxy-1,8-naphthyridine-3-carboxamides as antiviral agents” (Pharmacia & Upjohn Company, priority 2000, dated 2002):

Key:
HCMV polymerase = target: T1, HCMV polymerase (Human cytomegalovirus, UniProt P08546); experiment: HCMV polymerase assay (scintillation proximity assay, modified version); assay type: biochemical; settings: modified HCMV polymerase SPA; for IC50: compounds diluted in 100% DMSO, 4.5 mM DTT
T1 construct: made in house; host or cells: recombinant baculovirus-infected SF-9 cells
Procedure: The HCMV polymerase assay is performed using a scintillation proximity assay (SPA) as described in several references, such as N. D. Cook, et al., Pharmaceutical Manufacturing International, pages 49-53 (1992); K. Takeuchi, Laboratory Practice, September issue (1992); U.S. Pat. No. 4,568,649 (1986); which are incorporated by reference herein. Reactions are performed in 96-well plates. The assay is conducted in 100 μl volume with 5.4 mM HEPES (pH 7.5), 11.7 mM KCl, 4.5 mM MgCl2, 0.36 mg/ml BSA, and 90 nM ^3H-dTTP. Assays are run with and without CHAPS, (3-[(3-cholamidopropyl)-dimethylammonio]-1-propane-sulfonate) at a final concentration of 2 mM. HCMV polymerase is diluted in enzyme dilution buffer containing 50% glycerol, 250 mM NaCl, 10 mM HEPES (pH 7.5), 100 μg/ml BSA, and 0.01% sodium azide. The HCMV polymerase, which is expressed in recombinant baculovirus-infected SF-9 cells and purified according to literature procedures, is added at 10% (or 10 μl) of the final reaction volume, i.e., 100 μl. Compounds are diluted in 50% DMSO and 10 μl are added to each well. Control wells contain an equivalent concentration of DMSO. Unless noted otherwise, reactions are initiated via the addition of 6 nM biotinylated poly(dA)-oligo(dT) template/primer to reaction mixtures containing the enzyme, substrate, and compounds of interest. Plates are incubated in a 25° C. or 37° C. H2O bath and terminated via the addition of 40 μl/reaction of 0.5 M EDTA (pH 8) per well. Reactions are terminated within the time-frame during which substrate incorporation is linear and varied depending upon the enzyme and conditions used, i.e., 30 min. for HCMV polymerase. Ten μl of streptavidin-SPA beads (20 mg/ml in PBS/10% glycerol) are added following termination of the reaction. Plates are incubated 10 min. at 37° C., then equilibrated to room temperature, and counted on a Packard Topcount. Linear regressions are performed and IC50's are calculated using computer software.
A modified version of the above HCMV polymerase assay is performed as described above, but with the following changes: Compounds are diluted in 100% DMSO until final dilution into assay buffer. In the previous assay, compounds are diluted in 50% DMSO. 4.5 mM dithiotherotol (DTT) is added to the polymerase buffer. […] All results are listed as Polymerase IC50 (μM) values. In Table 1, the term “nd” refers to activity data not determined.

T1 sequence (P08546 whole entry): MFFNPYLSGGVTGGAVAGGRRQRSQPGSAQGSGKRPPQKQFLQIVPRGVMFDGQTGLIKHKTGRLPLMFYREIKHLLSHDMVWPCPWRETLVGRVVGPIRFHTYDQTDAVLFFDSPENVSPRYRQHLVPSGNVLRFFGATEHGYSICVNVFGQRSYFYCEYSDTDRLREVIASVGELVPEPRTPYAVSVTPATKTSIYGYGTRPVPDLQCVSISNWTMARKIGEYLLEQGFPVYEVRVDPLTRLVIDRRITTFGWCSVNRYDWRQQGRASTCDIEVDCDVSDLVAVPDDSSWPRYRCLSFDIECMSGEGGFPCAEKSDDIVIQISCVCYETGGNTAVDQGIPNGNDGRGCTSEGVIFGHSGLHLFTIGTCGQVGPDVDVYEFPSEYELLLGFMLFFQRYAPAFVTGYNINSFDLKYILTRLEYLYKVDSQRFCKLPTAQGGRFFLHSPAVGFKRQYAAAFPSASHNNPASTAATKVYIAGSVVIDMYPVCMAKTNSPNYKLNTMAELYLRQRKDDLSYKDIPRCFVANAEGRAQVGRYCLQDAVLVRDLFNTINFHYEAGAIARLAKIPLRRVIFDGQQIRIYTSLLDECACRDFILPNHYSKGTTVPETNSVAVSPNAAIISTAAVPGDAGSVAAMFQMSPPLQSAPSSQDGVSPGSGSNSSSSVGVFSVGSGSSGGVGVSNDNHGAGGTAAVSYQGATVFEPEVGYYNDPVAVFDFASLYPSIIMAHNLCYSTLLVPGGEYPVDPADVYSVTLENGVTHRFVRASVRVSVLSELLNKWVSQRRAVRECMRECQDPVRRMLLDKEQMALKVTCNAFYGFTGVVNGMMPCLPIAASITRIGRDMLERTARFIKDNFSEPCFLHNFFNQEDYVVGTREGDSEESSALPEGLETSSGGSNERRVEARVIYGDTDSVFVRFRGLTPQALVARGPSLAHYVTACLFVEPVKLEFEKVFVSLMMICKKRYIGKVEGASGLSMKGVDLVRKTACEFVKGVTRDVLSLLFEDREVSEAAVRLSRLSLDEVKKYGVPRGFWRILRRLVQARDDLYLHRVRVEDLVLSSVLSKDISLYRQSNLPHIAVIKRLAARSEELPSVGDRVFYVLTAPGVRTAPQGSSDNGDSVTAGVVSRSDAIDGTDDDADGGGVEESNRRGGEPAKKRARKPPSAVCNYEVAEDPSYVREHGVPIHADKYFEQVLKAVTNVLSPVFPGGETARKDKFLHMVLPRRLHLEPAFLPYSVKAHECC

SMILES	IC50 (HCMV polymerase) [µM]	melting point	HCMV polymerase inhibition (HCMV polymerase; at 20 μm) [% inhibition]
COC(=O)c1cc2c(O)c(C(=O)NCc3ccc(Cl)cc3)cnc2nc1C [Example 5, Methyl 6-{[(4-chlorobenzyl)amino]carbonyl}-5-hydroxy-2-methyl[1,8]naphthyridine-3-carboxylate]	8.5	265 to 267 °C	–
Cc1ccc2c(O)c(C(=O)NCc3ccc(Cl)cc3)cnc2n1 [Example 1, N-(4-chlorobenzyl)-4-hydroxy-7-methyl[1,8]naphthyridine-3-carboxamide]	26	280 to 285 °C (dec.)	–
Cc1nc2ncc(C(=O)NCc3ccc(Cl)cc3)c(O)c2cc1Br [Example 2, 6-bromo-N-(4-chlorobenzyl)-4-hydroxy-7-methyl[1,8]naphthyridine-3-carboxamide]	–	269 to 270 °C	39
Cc1nc2ncc(C(=O)NCc3ccc(Cl)cc3)c(O)c2cc1C#CCO [Example 3, N-(4-chlorobenzyl)-4-hydroxy-6-(3-hydroxy-1-propynyl)-7-methyl[1,8]naphthyridine-3-carboxamide]	2.1	279 to 281 °C (dec.)	–
Cc1nc2ncc(C(=O)NCc3ccc(Cl)cc3)c(O)c2cc1I [Example 4, N-(4-chlorobenzyl)-4-hydroxy-6-iodo-7-methyl[1,8]naphthyridine-3-carboxamide]	13.7	276 to 277 °C	–
